Laboratory results: patent US9034907B2, “Inhibitors of glutaminyl cyclase” (Probiodrug AG, priority 2007, dated 2015)
pIC50, pKi: −log10 of the molar value.

Tests used:
[1] = target: glutaminyl cyclase (QC) (Homo sapiens (Human), UniProt Q16769); assay: QC inhibitor assay (fluorometric / spectrophotometric QC activity assay with inhibitor added); conditions: 30° C.
glutaminyl cyclase (QC), sequence (Q16769 29-361): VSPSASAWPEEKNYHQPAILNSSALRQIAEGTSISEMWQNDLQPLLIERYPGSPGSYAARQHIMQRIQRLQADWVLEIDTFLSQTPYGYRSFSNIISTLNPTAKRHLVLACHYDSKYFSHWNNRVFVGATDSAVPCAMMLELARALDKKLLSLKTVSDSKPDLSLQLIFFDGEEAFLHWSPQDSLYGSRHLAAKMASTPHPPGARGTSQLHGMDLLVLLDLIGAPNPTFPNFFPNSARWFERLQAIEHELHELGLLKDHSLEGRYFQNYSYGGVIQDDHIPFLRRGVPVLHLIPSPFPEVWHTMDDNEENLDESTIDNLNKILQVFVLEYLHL
Protocol: All measurements were performed with a BioAssay Reader HTS-7000Plus for microplates (Perkin Elmer) at 30° C. QC activity was evaluated fluorometrically using H-Gln-βNA. The samples consisted of 0.2 mM fluorogenic substrate, 0.25 U pyroglutamyl aminopeptidase (Unizyme, Hørsholm, Denmark) in 0.2 M Tris/HCl, pH 8.0 containing 20 mM EDTA and an appropriately diluted aliquot of QC in a final volume of 250 μl. Excitation/emission wavelengths were 320/410 nm. The assay reactions were initiated by addition of glutaminyl cyclase. QC activity was determined from a standard curve of β-naphthylamine under assay conditions. One unit is defined as the amount of QC catalyzing the formation of 1 μmol pGlu-βNA from H-Gln-βNA per minute under the described conditions.
In a second fluorometric assay, QC was activity determined using H-Gln-AMC as substrate. Reactions were carried out at 30° C. utilizing the NOVOStar reader for microplates (BMG labtechnologies). […] The kinetic data were evaluated using GraFit software.
Samples consisted of the respective QC substrate, 0.3 mM NADH, 14 mM α-Ketoglutaric acid and 30 U/ml glutamate dehydrogenase in a final volume of 250 μl. […] All samples were measured at 30° C., using either the [sequence]luor Plus or the Sunrise (both from TECAN) reader for microplates. Kinetic data was evaluated using GraFit software. […]

Row | SMILES | melting point [°C] | further results
1 | Cc1csc2c(=O)n(CCCn3ccnc3)c(=S)[nH]c12 | 225 to 227 | –
2 | O=c1c2c3c(sc2[nH]c(=S)n1CCCn1ccnc1)CCCC3 | 118 to 120 | –
3 | O=c1c2ccccc2[nH]c(=S)n1CCCn1ccnc1 [Example 28, 2,3-dihydro-3-(3-(1H-imidazol-1-yl)propyl)-2-thioxoquinazolin-4(1H)-one] | – | pKi ([1]; competitive inhibition fit of progress curves): 6.52
4 | O=c1c2ccccc2[nH]c(=S)n1-c1ccc2[nH]cnc2c1 [Example 43, 3-(1H-benzo[d]imidazol-5-yl)-2,3-dihydro-2-thioxo-quinazolin-4(1H)-one] | – | pIC50 ([1]; QC inhibition): 3.92
